In US10870647B2, “Imidazopyridine derivative, method for preparing same, and pharmaceutical composition containing same as active ingredient for preventing or treating cancer” (DAEGU-GYEONGBUK MEDICAL INNOVATION FOUNDATION, priority 2016, dated 2020) one finds remaining binding data, which are given here for three compounds.

Holding throughout (assay): Kinase selectivity, scanMAX Kinase assay panel (DiscoverX), % control at 1 uM
What all share (type): binding

For assay [1], the target named is T1, scanMAX Kinase assay panel (Homo sapiens, UniProt O14757).
T1 construct: purchased DiscoverX
T1 sequence (O14757 1-476): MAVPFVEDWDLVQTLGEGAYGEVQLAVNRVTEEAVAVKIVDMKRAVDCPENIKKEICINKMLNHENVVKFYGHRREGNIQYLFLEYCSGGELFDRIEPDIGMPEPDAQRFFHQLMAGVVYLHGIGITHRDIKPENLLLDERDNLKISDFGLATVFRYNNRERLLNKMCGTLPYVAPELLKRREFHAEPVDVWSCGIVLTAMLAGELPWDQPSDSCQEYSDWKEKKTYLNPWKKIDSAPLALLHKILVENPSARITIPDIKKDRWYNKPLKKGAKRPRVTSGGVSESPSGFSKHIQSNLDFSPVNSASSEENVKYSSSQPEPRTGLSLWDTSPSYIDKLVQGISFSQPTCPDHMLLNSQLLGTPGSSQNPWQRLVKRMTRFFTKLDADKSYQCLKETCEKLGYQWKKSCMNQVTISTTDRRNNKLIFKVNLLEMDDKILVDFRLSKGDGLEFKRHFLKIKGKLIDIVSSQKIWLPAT
As to conditions: CHEK1; 1 uM; read-out: Percent Control (%). The procedure, abridged: (§1)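 Each kinase was first exposed to the test compound at 1 uM in DMSO. Signal was then normalised to positive and negative controls to give % control. Finally, any enzyme showing <35% control was judged inhibited.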

Assay [2] concerns the target T2, scanMAX Kinase assay panel (Homo sapiens, UniProt P41743).
T2 construct: purchased DiscoverX
T2 sequence (P41743 1-596): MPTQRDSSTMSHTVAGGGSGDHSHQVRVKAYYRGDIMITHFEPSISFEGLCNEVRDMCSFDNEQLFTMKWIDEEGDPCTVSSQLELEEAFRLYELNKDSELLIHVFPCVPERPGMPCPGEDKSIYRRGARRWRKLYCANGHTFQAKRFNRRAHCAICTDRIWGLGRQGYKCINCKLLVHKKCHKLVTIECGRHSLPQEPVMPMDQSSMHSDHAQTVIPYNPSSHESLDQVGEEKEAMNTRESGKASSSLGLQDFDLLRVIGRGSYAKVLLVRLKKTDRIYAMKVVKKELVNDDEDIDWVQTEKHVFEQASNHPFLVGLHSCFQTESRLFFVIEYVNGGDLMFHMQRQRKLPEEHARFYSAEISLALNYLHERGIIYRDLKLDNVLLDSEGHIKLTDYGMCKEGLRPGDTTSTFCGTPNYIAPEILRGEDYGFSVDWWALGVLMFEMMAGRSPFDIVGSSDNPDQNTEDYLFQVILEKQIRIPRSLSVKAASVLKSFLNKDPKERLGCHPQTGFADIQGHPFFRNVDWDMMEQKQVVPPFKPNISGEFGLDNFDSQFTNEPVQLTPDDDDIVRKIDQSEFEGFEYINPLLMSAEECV
To be noted: PRKCI; 1 uM; read-out: Percent Control (%). The procedure, abridged:
as §1

The target of assay [3] is T3, scanMAX Kinase assay panel (Homo sapiens, UniProt P48736).
T3 construct: purchased DiscoverX
T3 sequence (P48736 whole entry): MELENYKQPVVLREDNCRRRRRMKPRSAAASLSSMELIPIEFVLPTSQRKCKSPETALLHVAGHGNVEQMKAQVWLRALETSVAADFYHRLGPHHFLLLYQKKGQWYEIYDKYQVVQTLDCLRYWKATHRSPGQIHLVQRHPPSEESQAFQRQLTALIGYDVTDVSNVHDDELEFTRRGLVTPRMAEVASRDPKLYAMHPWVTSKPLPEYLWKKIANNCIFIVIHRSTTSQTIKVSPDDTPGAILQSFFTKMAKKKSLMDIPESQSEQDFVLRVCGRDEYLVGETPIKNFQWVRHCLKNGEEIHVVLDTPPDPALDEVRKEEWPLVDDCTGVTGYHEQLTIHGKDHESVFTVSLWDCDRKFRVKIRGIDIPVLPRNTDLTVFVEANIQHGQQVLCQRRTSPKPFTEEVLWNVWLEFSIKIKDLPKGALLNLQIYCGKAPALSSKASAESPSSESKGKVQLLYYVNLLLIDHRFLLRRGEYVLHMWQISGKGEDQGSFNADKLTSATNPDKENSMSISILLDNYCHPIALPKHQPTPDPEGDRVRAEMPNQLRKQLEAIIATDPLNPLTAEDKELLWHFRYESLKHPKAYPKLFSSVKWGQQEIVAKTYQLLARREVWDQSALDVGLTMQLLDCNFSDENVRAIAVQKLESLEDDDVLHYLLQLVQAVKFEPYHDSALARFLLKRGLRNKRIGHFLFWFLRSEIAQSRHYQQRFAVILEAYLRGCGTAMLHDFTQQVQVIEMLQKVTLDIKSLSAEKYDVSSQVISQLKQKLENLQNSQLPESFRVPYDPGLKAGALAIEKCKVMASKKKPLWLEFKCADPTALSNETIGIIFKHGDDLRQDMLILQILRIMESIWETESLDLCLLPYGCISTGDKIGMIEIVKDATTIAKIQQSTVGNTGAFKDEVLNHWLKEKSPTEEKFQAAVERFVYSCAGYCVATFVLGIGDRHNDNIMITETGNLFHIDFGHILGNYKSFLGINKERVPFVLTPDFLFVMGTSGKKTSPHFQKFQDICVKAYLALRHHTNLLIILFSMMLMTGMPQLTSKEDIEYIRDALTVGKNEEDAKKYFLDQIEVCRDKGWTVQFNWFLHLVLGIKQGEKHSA
As to conditions: PIK3CG; 1 uM; read-out: Percent Control (%). Summed up:
as §1

Assay [4] has as its target T4, scanMAX Kinase assay panel (Homo sapiens, UniProt Q9BZL6).
T4 construct: purchased DiscoverX
T4 sequence (Q9BZL6 1-878): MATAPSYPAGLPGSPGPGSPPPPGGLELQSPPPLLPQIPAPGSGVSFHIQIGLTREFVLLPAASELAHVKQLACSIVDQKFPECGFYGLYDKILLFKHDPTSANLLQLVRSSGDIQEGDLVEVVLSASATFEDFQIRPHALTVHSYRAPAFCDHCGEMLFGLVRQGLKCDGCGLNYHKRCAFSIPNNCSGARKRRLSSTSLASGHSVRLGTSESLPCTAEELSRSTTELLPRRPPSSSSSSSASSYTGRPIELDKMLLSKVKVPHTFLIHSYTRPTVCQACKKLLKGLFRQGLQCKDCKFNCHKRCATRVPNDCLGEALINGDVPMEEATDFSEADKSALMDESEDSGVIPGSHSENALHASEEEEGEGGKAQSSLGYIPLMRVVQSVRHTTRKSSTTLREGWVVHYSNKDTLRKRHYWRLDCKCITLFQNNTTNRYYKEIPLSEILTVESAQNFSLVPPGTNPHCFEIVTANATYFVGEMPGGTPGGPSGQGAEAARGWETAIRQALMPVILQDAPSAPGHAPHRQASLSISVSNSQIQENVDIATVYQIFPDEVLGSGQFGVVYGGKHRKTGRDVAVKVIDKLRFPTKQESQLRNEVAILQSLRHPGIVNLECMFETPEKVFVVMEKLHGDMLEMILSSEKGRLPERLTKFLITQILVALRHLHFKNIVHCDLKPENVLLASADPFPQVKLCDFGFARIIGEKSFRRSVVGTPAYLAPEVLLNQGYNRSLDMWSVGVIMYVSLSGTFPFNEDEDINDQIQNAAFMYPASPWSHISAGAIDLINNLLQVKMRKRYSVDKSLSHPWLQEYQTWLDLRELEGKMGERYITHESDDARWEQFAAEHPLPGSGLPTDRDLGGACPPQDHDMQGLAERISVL
To be noted: PRKD2; 1 uM; read-out: Percent Control (%). Summed up:
as §1

The target in assay [5] is T5, scanMAX Kinase assay panel (Homo sapiens, UniProt Q08345).
T5 construct: purchased DiscoverX
T5 sequence (Q08345 19-913): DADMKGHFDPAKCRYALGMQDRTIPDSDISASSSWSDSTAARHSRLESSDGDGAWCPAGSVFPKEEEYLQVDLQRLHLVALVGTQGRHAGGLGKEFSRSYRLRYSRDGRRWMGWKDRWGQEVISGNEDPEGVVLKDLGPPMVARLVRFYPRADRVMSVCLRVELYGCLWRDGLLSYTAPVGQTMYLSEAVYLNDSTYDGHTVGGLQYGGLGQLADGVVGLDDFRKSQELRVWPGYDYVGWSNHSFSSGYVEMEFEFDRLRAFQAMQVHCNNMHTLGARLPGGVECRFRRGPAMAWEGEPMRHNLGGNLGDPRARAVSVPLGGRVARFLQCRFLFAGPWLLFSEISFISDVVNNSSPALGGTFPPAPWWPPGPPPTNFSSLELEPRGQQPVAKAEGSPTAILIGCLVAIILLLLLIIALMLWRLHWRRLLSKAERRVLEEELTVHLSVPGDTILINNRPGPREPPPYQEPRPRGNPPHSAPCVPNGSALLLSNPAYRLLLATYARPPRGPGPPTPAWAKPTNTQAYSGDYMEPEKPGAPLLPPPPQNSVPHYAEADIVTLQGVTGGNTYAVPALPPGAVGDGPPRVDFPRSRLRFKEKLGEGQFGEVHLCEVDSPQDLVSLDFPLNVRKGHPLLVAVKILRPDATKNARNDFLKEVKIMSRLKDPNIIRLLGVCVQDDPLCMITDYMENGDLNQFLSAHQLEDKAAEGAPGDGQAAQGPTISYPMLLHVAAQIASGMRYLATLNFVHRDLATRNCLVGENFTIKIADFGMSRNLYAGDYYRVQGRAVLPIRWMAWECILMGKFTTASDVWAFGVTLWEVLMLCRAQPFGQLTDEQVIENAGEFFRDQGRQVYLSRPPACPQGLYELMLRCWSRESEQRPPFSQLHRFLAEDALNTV
To be noted: DDR1; 1 uM; read-out: Percent Control (%). The procedure, abridged: as §1

Assay [6] has as its target T6, scanMAX Kinase assay panel (Homo sapiens, UniProt P06241).
T6 construct: purchased DiscoverX
As to conditions: FYN; 1 uM; read-out: Percent Control (%). Summed up: as §1

Assay [7] has as its target T7, scanMAX Kinase assay panel (Homo sapiens, UniProt P48730).
T7 construct: purchased DiscoverX
As to conditions: CSNK1D; 1 uM; read-out: Percent Control (%). The procedure, abridged: as §1

In assay [8] the target is T8, scanMAX Kinase assay panel (Homo sapiens, UniProt Q8N5S9).
T8 construct: purchased DiscoverX
T8 sequence (Q8N5S9 whole entry): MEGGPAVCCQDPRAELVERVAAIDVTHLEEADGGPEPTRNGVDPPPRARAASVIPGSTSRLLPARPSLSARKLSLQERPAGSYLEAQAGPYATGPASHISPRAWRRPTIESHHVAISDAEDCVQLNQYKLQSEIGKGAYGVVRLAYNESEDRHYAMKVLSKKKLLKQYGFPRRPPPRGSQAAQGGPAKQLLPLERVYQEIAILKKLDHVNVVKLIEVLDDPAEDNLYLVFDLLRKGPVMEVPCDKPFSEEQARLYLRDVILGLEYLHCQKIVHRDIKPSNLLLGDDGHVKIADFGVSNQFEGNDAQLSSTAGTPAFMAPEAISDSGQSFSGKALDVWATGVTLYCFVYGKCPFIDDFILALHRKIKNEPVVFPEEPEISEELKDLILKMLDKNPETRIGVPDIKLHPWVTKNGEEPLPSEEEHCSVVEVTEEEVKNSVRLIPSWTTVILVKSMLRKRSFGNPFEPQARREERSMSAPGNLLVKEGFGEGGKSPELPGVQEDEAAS
As to conditions: CAMKK1; 1 uM; read-out: Percent Control (%). Summed up:
as §1

Assay [9] addresses T9, scanMAX Kinase assay panel (Homo sapiens, UniProt P04626).
T9 construct: purchased DiscoverX
To be noted: ERBB2; 1 uM; read-out: Percent Control (%). The procedure, abridged:
as §1

T7 sequence (P48730 whole entry): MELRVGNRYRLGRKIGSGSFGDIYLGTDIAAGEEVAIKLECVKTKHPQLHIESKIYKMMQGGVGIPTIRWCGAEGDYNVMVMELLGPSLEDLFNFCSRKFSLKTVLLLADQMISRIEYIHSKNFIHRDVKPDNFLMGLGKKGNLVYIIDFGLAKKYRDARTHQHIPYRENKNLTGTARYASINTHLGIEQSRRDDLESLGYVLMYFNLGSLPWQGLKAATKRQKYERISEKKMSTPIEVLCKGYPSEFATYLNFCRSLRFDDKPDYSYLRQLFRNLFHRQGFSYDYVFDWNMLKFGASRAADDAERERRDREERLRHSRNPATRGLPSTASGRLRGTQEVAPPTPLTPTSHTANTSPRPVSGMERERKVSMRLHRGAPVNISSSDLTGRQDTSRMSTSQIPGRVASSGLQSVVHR
T6 sequence (P06241 whole entry): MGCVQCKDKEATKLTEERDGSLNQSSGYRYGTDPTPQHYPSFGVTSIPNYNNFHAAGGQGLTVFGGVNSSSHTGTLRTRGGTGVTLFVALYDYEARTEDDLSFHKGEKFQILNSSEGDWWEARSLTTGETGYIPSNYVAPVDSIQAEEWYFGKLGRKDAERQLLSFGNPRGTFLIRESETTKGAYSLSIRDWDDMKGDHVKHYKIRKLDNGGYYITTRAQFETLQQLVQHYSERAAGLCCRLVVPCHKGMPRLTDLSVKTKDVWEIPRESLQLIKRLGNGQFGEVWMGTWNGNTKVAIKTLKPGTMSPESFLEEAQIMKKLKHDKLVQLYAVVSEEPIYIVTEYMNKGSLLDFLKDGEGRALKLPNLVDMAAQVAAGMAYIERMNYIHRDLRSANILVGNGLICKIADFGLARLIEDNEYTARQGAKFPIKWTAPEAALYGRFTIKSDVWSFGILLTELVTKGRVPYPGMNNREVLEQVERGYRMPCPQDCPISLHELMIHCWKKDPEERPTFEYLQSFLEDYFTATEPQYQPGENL
T9 sequence (P04626 23-1255): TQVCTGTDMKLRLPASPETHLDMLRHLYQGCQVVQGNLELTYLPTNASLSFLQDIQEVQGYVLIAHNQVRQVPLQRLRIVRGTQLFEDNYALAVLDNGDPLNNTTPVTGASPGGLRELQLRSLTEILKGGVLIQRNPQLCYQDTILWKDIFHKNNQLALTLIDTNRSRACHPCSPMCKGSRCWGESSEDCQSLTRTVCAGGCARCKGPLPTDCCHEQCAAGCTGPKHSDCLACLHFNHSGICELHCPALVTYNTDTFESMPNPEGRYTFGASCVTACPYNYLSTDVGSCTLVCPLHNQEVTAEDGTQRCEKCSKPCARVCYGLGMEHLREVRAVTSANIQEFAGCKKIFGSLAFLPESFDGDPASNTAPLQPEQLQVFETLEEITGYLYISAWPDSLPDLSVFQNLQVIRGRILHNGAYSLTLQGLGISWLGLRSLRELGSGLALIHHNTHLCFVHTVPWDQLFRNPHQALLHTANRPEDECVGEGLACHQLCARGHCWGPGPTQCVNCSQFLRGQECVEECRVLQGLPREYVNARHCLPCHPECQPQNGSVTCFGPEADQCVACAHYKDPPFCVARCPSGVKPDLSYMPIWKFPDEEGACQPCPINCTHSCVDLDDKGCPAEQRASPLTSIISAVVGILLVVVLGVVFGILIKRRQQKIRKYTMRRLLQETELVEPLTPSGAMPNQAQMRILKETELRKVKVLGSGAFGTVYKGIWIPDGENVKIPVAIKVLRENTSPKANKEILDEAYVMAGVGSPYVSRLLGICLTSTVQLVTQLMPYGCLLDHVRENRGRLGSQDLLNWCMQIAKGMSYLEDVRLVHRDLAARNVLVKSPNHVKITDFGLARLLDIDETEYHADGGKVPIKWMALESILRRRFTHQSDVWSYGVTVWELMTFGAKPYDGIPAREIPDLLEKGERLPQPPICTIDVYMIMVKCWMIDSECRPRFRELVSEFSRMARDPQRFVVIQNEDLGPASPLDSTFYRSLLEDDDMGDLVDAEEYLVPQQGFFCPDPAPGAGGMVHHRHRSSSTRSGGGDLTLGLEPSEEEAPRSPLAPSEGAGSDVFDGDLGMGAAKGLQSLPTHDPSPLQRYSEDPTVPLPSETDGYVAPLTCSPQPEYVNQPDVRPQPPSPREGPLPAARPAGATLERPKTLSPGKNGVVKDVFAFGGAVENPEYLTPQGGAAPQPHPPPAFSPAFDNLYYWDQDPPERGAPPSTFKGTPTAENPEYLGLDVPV

Consider `Cc1ccc(C(=O)Nc2ccc(CN3CCN(C)CC3)c(C(F)(F)F)c2)cc1C#Cc1cnc2c(Nc3cnn(C)c3)cccn12` [Example 1, 4-methyl-3-((8-((1-methyl-1H-pyrazol-4-yl)amino)imidazo[1,2-a]pyridin-3-yl)ethynyl)-N-(4-((4-methylpiperazin-1-yl)methyl)-3-(trifluoromethyl)phenyl)benzamide], for which the remaining binding at 1 µM in assay [1] turned out to be 90%; in assay [2], 51%; in assay [3], 100%; in [4] it was 41%; in [5], 0%; in [6], 1%. Moreover, the remaining binding at 1 µM turned out to be 91% in assay [7], 23% in assay [8] and 1% in assay [9].
With `Cc1cn(-c2cc(NC(=O)c3ccc(C)c(C#Cc4cnc5c(Nc6cnn(C)c6)cccn45)c3)cc(C(F)(F)F)c2)cn1` [Example 12, 4-methyl-N-(3-(4-methyl-1H-imidazol-1-yl)-5-(trifluoromethyl)phenyl)-3-((8-((1-methyl-1H-pyrazol-4-yl)amino)imidazo[1,2-a]pyridin-3-yl)ethynyl)benzamide], the remaining binding at 1 µM turned out to be 100% in assay [1]; 66% in [2]; 100% in assay [3]; 98% in assay [4]; 7% in assay [5]; 15% in [6]. Besides, the values for the remaining binding at 1 µM in assay [7], in assay [8] and in assay [9] were 79%, 81% and 68%, respectively.
With `Cc1ccc(NC(=O)C2(C(=O)Nc3ccc(F)cc3)CC2)cc1C#Cc1cnc2c(Nc3cnn(C(C)C)c3)cccn12` [Example 78], the remaining binding at 1 µM was determined as 98% in [1]; 69% in [2]; 100% in assay [3]; 95% in [4]; 1% in assay [5]; 84% in assay [6]. The remaining binding at 1 µM is 92% in assay [7], 100% in [8] and 81% in [9].
